Test results: patent US12702657B2, “Treatment and prevention of dengue disease” (Janssen Pharmaceuticals, Inc., priority 2019, dated 2026)

Columns and labels:
DENV-2/Rega lab strain = assay: AG129 mouse model, low viral input (10^2 PFU), PrEP, post-exposure prophylaxis and treatment (delayed treatment start); type: in vivo, AG129 mice; settings: 30 mg/kg/dose b.i.d.; for viral load at viral rebound: start 2 days after infection (group 4)
Method: AG129 mice, age- and sex-matched (6 to 9 weeks of age), were used to assess the activity of compound (b) on viral RNA levels in the serum of the mice. The animals were infected intraperitoneally (i.p.) with 1×10^2 PFU DENV-2/Rega lab strain and treated for five consecutive days with compound (b) which was administered by oral gavage. Compound (b) was administered every 12 hours (twice daily or b.i.d.).
The mice were divided in six treatment groups (n=8/group) representing the following treatment regimens: • (i) Vehicle 80%/20% PEG400/H2O (group 1), • (ii) 30 mg/kg/dose compound (b) b.i.d.: first administration 1 hour before infection (group 2), • (iii) 30 mg/kg/dose compound (b) b.i.d., first administration 1 day after infection (group 3), • (iv) 30 mg/kg/dose compound (b) b.i.d., first administration 2 days after infection (group 4), • (v) 30 mg/kg/dose compound (b) b.i.d., first administration 3 days after infection (group 5), • (vi) 30 mg/kg/dose compound (b) b.i.d., first administration 4 days after infection (group 6), • (vii) 30 mg/kg/dose compound (b) b.i.d., first administration 5 days after infection (group 7), • (viii) 30 mg/kg/dose compound (b) b.i.d., first administration 6 days after infection (group 8).
Blood for viral RNA load detection was collected from mice in two alternating sub-groups. Each sub-group comprised half of the mice (n/2=4) from each of the treatment groups (i) to (viii). Blood was collected from a first sub-group at days 2, 4, 6, 8 and 12 p.i. and from a second sub-group at days 3, 5, 7, 9 and 14 p.i. At day 12 p.i., half of the mice in each treatment group (n=4/group) were sacrificed. The remaining mice in each treatment group (n=4/group) were sacrificed at day 14 p.i. (FIG. 17Y).

DENV-2/16681 = assay: Pre-exposure prophylaxis in non-human primate model against DENV-2/16681; type: in vivo, rhesus monkeys (Macaca mulatta); settings: for reduction in median peak DENV RNA compared with vehicle, significance / median reduction in DENV peak RNA levels compared with vehicle control: Bayesian nonlinear dose-response model; for onset of DENV RNA and peak RNA / DENV RNA throughout the study period (up to day 28): day -1 to day 10; for onset of DENV RNA and peak RNA: in some animals; for median reduction in DENV peak RNA levels compared with vehicle control: estimated
Method: Compound (a) was tested in a non-human primate (NHP) model against DENV-2/16681. The setup of the experiment was designed as a pre-exposure prophylaxis (PreP) study. Oral administration of compound (a) started one day before experimental infection (day −1) and continued with daily administrations until 10 days post-infection. On day 0, the animals were infected by intradermal inoculation with 100 TCID50 of DENV-2/16681 virus in a total volume of 0.1 mL (FIG. 11).
The rhesus monkeys were divided in 7 groups representing the following treatment regimens: • (i) Vehicle 100% PEG400 (n=5) • (ii) Group 1: 0.01 mg/kg/dose, q.d. (n=3), • (iii) Group 2: 0.18 mg/kg/dose, q.d. (n=3), • (iv) Group 3: 3 mg/kg/dose, q.d. (n=3), • (v) Group 4: 0.024 mg/kg/dose, q.d. (n=4), • (vi) Group 5: 0.09 mg/kg/dose, q.d. (n=4), • (vii) Group 6: 0.93 mg mg/kg/dose, q.d. (n=4).
The antiviral activity of compound (a) in a prophylactic setting is being assessed in DENV-2/16681 infected rhesus monkeys (Macaca mulatta). Blood samples were taken on a daily basis from day 0 until day 11, and on day 14 and day 28. DENV RNA was measured using real-time qPCR as described by Santiago et al. (2013). Results from compound (a) doses of 0.01, 0.024, 0.09, 0.18, 0.93 and 3 mg/kg, administered once daily from day 1 before infection until day 10 post infection, are shown in FIGS. 12A and B.
Based on a Bayesian nonlinear dose-response statistical model, the peak viral load reduction compared with vehicle was estimated for each dose group. […] A dose dependent median reduction in DENV peak RNA levels of 0.78, 1.91, 4.73 and 6.76 log10 genome copy equivalents (GCE) per milliliter (GCE/mL) plasma compared with vehicle control was estimated with the 0.09, 0.18, 0.93 and 3 mg/kg doses, respectively (Table 1).

DENV 1/45AZ5 = assay: Antiviral activity against DENV 1/45AZ5 in non-human primates, prophylactic setting; type: in vivo, rhesus monkeys (Macaca mulatta); settings: 6 mg/kg q.d. oral, day -3 to day 10, follow-up to day 28 post infection
Method: The antiviral activity of compound (a) DENV in a prophylactic setting was assessed in rhesus monkeys (Macaca mulatta) infected with strain DENV 1/45AZ5. Oral dosing of compound (a) (6 mg/kg) was started 3 days before infection with DENV (day −3) and continued with daily dosing until 10 days post infection. On day 0, the animals were intradermally inoculated with 0.5 mL of DENV 1/45AZ5 (1.2×105 plaque-forming units [PFU/mL]). Animals were followed up until day 28 post infection (FIG. 13 X).
The rhesus monkeys were divided in 2 groups representing the following treatment regimens: • (i) Vehicle 100% PEG400 (n=6) • (ii) Group 1: 6 mg/kg/dose, q.d. (n=6),

[1] = first administration 4 days after infection (group 6)
[2] = first administration 5 days after infection (group 7)

## COc1cc(NC(C(=O)N2CCc3ccc(OC(F)(F)F)cc32)c2ccc(Cl)cc2)cc(OCCCC(=O)O)c1 (centres unmarked) [compound (b)]
DENV-2/Rega lab strain; first administration 1 hour before infection (group 2)
  viral RNA in the serum: undetectable levels
DENV-2/Rega lab strain; first administration 1 day after infection (group 3)
  viral RNA in the serum: undetectable levels
DENV-2/Rega lab strain; first administration 2 days after infection (group 4), except two measurements
  viral RNA in the serum: undetectable levels
DENV-2/Rega lab strain; first administration 3 days after infection (group 5)
  viral load until day 9 post infection: undetectable viral load
DENV-2/Rega lab strain; [1]
  peak viral load reduction: 1.1 log10 copies/mL
  time to undetectable viral load compared with vehicle treated mice: undetectable viral load was reached earlier
DENV-2/Rega lab strain; [2]
  peak viral load reduction: 0.7 log10 copies/mL
  time to undetectable viral load compared with vehicle treated mice: undetectable viral load was reached earlier
DENV-2/Rega lab strain; first administration 6 days after infection (group 8)
  time to undetectable viral load compared with vehicle treated mice: undetectable viral load was reached earlier
DENV-2/Rega lab strain; day 9 post infection
  viral load at viral rebound: 3.0 log10 copies/mL
DENV-2/Rega lab strain; day 14 post infection
  viral load at viral rebound: 4.7 log10 copies/mL
DENV-2/Rega lab strain; start 3 days after infection (group 5), day 12 post infection
  viral RNA detected: 5.0 log10 copies/mL

## COc1cc(NC(C(=O)c2c[nH]c3ccc(OC(F)(F)F)cc23)c2ccc(Cl)cc2OC)cc(S(C)(=O)=O)c1 (centres unmarked) [compound (a)]
DENV-2/16681; 0.01 mg/kg q.d. oral
  reduction in median peak DENV RNA compared with vehicle, significance: No statistically significant reduction
DENV-2/16681; 0.024 mg/kg q.d. oral
  reduction in median peak DENV RNA compared with vehicle, significance: No statistically significant reduction
DENV-2/16681; 0.09 mg/kg q.d. oral
  onset of DENV RNA and peak RNA: delayed onset of DENV RNA and peak RNA
  median reduction in DENV peak RNA levels compared with vehicle control: 0.78 log10 GCE/mL
DENV-2/16681; 0.18 mg/kg q.d. oral
  onset of DENV RNA and peak RNA: delayed onset of DENV RNA and peak RNA
  median reduction in DENV peak RNA levels compared with vehicle control: 1.91 log10 GCE/mL
DENV-2/16681; 0.93 mg/kg q.d. oral
  DENV RNA throughout the study period (up to day 28): No DENV RNA was detectable
  median reduction in DENV peak RNA levels compared with vehicle control: 4.73 log10 GCE/mL
DENV-2/16681; 3 mg/kg q.d. oral
  DENV RNA throughout the study period (up to day 28): No DENV RNA was detectable
  median reduction in DENV peak RNA levels compared with vehicle control: 6.76 log10 GCE/mL
DENV 1/45AZ5
  DENV RNA during the complete study period: undetectable
